ChEMBL document CHEMBL6120980, “Discovery of First Branched-Chain Ketoacid Dehydrogenase Kinase (BDK) Inhibitor Clinical Candidate PF-07328948” (J Med Chem, 2025)

Legend:
[1] = biological target: Branched-chain alpha-ketoacid dehydrogenase kinase (Mus musculus, UniProt O55028); assay: Inhibition of mouse BDK using LBD-Tev-PhosphoPep/Lipoyl as substrate preincubated for 15 mins followed by substrate/ATP addition and measured after 90 mins by TR-FRET assay
[2] = biological target: UDP-glucuronosyltransferase 1A1 (Homo sapiens, UniProt P22309); assay: Drug metabolism assessed as recombinant human UGT1A1-mediated (2S,3S,4S,5R)-6-((6-fluoro-3-(2,4,5-trifluoro-3-methoxyphenyl)benzo[b]thiophene-2-carbonyl)oxy)-3,4,5-trihydroxytetrahydro-2H-pyran-2-carboxylic acid metabolite formation at 1 uM; format: ADME; settings: recombinant enzyme
Chain of UDP-glucuronosyltransferase 1A1 (P22309 whole entry): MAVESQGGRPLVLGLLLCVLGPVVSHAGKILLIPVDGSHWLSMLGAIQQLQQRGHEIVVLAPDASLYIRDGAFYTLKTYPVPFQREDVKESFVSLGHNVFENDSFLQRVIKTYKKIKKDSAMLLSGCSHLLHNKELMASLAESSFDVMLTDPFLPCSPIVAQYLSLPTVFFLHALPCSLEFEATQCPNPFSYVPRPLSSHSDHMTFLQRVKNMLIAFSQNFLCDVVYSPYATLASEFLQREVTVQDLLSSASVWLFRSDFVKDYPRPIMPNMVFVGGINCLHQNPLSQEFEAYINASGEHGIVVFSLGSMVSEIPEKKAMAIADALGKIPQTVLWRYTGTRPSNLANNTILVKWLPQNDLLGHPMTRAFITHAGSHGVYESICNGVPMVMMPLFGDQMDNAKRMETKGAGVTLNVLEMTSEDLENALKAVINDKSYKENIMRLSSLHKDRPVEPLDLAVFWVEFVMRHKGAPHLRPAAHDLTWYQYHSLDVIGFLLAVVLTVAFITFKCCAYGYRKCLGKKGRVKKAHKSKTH

[3] = biological target: UDP-glucuronosyltransferase 1A3 (Homo sapiens, UniProt P35503); assay: Drug metabolism assessed as recombinant human UGT1A3-mediated (2S,3S,4S,5R)-6-((6-fluoro-3-(2,4,5-trifluoro-3-methoxyphenyl)benzo[b]thiophene-2-carbonyl)oxy)-3,4,5-trihydroxytetrahydro-2H-pyran-2-carboxylic acid metabolite formation at 1 uM; format: ADME; settings: recombinant enzyme
[4] = biological target: UDP-glucuronosyltransferase 1A9 (Homo sapiens, UniProt O60656); assay: Drug metabolism assessed as recombinant human UGT1A9-mediated (2S,3S,4S,5R)-6-((6-fluoro-3-(2,4,5-trifluoro-3-methoxyphenyl)benzo[b]thiophene-2-carbonyl)oxy)-3,4,5-trihydroxytetrahydro-2H-pyran-2-carboxylic acid metabolite formation at 1 uM; format: ADME; settings: recombinant enzyme
[5] = biological target: UDP-glucuronosyltransferase 2B4 (Homo sapiens, UniProt P06133); assay: Drug metabolism assessed as recombinant human UGT2B4-mediated (2S,3S,4S,5R)-6-((6-fluoro-3-(2,4,5-trifluoro-3-methoxyphenyl)benzo[b]thiophene-2-carbonyl)oxy)-3,4,5-trihydroxytetrahydro-2H-pyran-2-carboxylic acid metabolite formation at 1 uM; format: ADME; settings: recombinant enzyme
Chain of UDP-glucuronosyltransferase 2B4 (P06133 whole entry): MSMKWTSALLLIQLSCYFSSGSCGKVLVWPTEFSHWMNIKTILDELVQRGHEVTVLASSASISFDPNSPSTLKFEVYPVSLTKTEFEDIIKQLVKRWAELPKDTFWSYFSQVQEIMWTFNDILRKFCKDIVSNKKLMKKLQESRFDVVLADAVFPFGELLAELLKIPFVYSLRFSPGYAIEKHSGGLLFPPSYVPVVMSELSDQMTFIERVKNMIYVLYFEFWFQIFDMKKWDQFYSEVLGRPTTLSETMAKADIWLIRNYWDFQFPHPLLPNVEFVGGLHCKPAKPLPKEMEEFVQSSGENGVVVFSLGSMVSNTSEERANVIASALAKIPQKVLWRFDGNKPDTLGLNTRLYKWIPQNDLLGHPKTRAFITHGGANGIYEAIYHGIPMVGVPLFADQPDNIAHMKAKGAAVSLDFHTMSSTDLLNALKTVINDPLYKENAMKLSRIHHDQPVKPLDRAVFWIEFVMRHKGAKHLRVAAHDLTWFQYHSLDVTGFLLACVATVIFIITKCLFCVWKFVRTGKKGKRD

[6] = biological target: UDP-glucuronosyltransferase 2B15 (Homo sapiens, UniProt P54855); assay: Drug metabolism assessed as recombinant human UGT2B15-mediated (2S,3S,4S,5R)-6-((6-fluoro-3-(2,4,5-trifluoro-3-methoxyphenyl)benzo[b]thiophene-2-carbonyl)oxy)-3,4,5-trihydroxytetrahydro-2H-pyran-2-carboxylic acid metabolite formation at 1 uM; format: ADME; settings: recombinant enzyme
Cytochrome P450 = assay: Drug metabolism in human hepatocytes assessed as CYP450-catalyzed o-demethylation mediated 6-fluoro-3-(2,4,5-trifluoro-3-hydroxyphenyl)benzo[b]thiophene-2-carboxylic acid metabolite formation by mass spectrometric analysis; format: ADME, cell-based, Hepatocyte
[7] = biological target: Solute carrier family 22 member 6 (Homo sapiens, UniProt Q4U2R8); assay: Inhibition of human OAT1 expressed in HEK293 cells using p-aminohippuric acid as substrate preincubated for 30 mins followed by substrate addition and measured after 1 to 4 mins; format: cell-based
Cytochrome P450 2C19 = Cytochrome P450 2C19 (Homo sapiens, UniProt P33261); assay: Reversible inhibition of human CYP2C19-mediated S-mephenytoin-4'-hydroxylation in human liver microsomes using S-mephenytoin as substrate in presence of NADPH; format: ADME, Microsome
Cytochrome P450 2D6 = Cytochrome P450 2D6 (Homo sapiens, UniProt P10635); assay: Reversible inhibition of human CYP2D6-mediated dextromethorphan-O-demethylation in human liver microsomes using dextromethorphan as substrate in presence of NADPH; format: ADME, Microsome
Chain of Cytochrome P450 2D6 (P10635 whole entry): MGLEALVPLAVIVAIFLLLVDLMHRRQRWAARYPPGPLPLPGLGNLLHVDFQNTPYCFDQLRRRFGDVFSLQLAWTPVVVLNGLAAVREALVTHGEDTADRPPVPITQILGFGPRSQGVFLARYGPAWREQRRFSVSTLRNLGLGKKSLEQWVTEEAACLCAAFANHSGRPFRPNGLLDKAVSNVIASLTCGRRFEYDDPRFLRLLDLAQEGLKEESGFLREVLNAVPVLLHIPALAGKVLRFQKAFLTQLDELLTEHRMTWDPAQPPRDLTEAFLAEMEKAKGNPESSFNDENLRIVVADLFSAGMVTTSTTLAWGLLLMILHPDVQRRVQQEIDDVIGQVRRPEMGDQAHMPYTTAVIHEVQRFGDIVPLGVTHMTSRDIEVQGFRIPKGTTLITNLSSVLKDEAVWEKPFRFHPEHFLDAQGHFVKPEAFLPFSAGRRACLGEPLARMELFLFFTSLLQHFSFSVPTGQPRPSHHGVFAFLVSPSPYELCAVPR

Cytochrome P450 3A4 [8] = biological target: T1, Cytochrome P450 3A4 (Homo sapiens, UniProt P08684); assay: Reversible inhibition of human CYP3A4-mediated midazolam-1'-hydroxylation in human liver microsomes using midazolam as substrate in presence of NADPH; format: ADME, Microsome
T1 sequence (P08684 whole entry): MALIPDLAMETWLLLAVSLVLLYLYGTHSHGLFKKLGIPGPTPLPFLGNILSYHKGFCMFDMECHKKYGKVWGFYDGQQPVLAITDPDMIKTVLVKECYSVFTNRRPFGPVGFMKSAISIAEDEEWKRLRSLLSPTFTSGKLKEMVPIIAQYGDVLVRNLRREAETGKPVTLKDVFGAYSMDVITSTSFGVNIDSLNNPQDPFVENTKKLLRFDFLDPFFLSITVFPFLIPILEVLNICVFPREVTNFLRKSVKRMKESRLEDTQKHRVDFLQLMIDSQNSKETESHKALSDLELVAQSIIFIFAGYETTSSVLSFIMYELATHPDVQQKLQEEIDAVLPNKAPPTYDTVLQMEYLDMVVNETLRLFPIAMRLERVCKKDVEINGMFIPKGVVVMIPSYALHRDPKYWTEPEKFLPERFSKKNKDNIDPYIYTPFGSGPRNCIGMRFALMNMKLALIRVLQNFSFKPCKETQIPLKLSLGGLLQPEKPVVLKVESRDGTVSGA

Cytochrome P450 3A4 [9] = biological target: T1, Cytochrome P450 3A4; assay: Reversible inhibition of human CYP3A4-mediated testosterone-6beta-hydroxylation in human liver microsomes using testosterone as substrate in presence of NADPH; format: ADME, Microsome
Cytochrome P450 3A5 = Cytochrome P450 3A5 (Homo sapiens, UniProt P20815); assay: Reversible inhibition of human CYP3A5-mediated nifedipine oxidation in human liver microsomes using nifedipine as substrate in presence of NADPH; format: ADME, Microsome
Cytochrome P450 1A2 = Cytochrome P450 1A2 (Homo sapiens, UniProt P05177); assay: Reversible inhibition of human CYP1A2-mediated phenacetin-O-dealkylation in human liver microsomes using phenacetin as substrate in presence of NADPH; format: ADME, Microsome
Chain of Cytochrome P450 1A2 (P05177 whole entry): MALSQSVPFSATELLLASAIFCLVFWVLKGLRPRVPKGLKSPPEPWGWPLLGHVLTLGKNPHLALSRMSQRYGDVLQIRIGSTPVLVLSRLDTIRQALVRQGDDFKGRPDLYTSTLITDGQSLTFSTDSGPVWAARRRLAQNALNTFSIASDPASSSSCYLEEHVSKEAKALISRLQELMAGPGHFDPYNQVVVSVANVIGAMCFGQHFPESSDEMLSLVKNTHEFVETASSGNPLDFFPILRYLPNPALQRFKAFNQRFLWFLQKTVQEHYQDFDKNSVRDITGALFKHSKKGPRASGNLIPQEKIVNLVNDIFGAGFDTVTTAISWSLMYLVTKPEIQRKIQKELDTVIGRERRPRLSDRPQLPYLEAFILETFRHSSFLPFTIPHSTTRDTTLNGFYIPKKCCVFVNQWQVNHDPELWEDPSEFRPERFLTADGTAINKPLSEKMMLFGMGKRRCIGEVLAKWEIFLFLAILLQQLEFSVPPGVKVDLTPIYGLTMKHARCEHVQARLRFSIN

Cytochrome P450 2B6 = Cytochrome P450 2B6 (Homo sapiens, UniProt P20813); assay: Reversible inhibition of human CYP2B6-mediated bupropion hydroxylation in human liver microsomes using bupropion as substrate in presence of NADPH; format: ADME, Microsome
Chain of Cytochrome P450 2B6 (P20813 whole entry): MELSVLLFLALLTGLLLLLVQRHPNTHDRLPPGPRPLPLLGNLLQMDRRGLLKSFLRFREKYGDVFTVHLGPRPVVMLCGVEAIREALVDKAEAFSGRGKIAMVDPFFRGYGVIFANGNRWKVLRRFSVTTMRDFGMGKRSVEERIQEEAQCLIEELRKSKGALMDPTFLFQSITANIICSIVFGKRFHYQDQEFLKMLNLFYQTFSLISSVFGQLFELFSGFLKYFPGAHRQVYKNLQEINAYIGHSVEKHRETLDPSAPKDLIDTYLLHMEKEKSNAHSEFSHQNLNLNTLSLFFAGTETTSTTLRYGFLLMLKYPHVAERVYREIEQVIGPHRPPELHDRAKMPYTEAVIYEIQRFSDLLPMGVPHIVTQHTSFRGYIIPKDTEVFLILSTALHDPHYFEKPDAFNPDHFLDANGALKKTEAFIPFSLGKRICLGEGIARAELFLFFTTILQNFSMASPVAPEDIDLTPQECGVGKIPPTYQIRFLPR

Cytochrome P450 2C8 = Cytochrome P450 2C8 (Homo sapiens, UniProt P10632); assay: Reversible inhibition of human CYP2C8-mediated amodiaquine N-dealkylation in human liver microsomes using amodiaquine as substrate in presence of NADPH; format: ADME, Microsome
Chain of Cytochrome P450 2C8 (P10632 whole entry): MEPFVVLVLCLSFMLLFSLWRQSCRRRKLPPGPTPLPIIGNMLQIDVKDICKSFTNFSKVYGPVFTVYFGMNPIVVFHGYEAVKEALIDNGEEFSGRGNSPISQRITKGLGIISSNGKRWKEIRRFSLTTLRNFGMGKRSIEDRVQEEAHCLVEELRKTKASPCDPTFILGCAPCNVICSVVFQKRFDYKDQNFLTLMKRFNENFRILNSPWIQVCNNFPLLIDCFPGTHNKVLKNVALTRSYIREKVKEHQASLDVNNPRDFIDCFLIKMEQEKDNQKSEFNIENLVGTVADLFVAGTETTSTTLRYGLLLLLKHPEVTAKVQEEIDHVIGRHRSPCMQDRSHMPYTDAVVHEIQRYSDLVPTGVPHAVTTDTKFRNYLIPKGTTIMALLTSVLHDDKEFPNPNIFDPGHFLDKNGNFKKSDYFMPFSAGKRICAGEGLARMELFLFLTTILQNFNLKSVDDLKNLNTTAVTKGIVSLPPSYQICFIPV

Cytochrome P450 2C9 = Cytochrome P450 2C9 (Homo sapiens, UniProt P11712); assay: Reversible inhibition of human CYP2C9-mediated diclofenac-4'-hydroxylation in human liver microsomes using diclofenac as substrate in presence of NADPH; format: ADME, Microsome
Chain of Cytochrome P450 2C9 (P11712 whole entry): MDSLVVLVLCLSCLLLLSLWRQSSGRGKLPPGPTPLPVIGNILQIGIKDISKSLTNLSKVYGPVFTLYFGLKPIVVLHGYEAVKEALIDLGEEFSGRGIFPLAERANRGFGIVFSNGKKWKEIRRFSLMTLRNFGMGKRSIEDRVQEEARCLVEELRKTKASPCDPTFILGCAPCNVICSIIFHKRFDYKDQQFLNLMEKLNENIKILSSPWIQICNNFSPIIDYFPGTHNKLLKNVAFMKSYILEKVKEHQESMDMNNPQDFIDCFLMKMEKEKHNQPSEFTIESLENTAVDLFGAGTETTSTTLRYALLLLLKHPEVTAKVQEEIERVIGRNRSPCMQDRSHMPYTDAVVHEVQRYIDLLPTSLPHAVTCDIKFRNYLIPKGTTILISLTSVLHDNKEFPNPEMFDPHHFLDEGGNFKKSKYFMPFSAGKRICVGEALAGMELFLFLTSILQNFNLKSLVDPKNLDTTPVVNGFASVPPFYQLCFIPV

[10] = biological target: Organic anion transporter 3 (Homo sapiens, UniProt Q8TCC7); assay: Inhibition of human OAT3 expressed in HEK293 cells using estrone-3-sulfate as substrate preincubated for 30 mins followed by substrate addition and measured after 1 to 4 mins; format: cell-based
[11] = biological target: Solute carrier organic anion transporter family member 1B1 (Homo sapiens, UniProt Q9Y6L6); assay: Inhibition of human OATP1B1 expressed in HEK293 cells using rosuvastatin as substrate preincubated for 30 mins followed by substrate addition and measured after 1 to 4 mins; format: cell-based
[12] = biological target: ATP-dependent translocase ABCB1 (Homo sapiens, UniProt P08183); assay: Inhibition of human MDR1 expressed in HEK293 cell vesicles using N-methylquinidine as substrate preincubated for 30 mins followed by substrate addition and measured after 1 to 4 mins; format: subcellular, Vesicle
[13] = biological target: Solute carrier organic anion transporter family member 1B3 (Homo sapiens, UniProt Q9NPD5); assay: Inhibition of human OATP1B3 expressed in HEK293 cells using rosuvastatin as substrate preincubated for 30 mins followed by substrate addition and measured after 1 to 4 mins; format: cell-based
Chain of Solute carrier organic anion transporter family member 1B3 (Q9NPD5 whole entry): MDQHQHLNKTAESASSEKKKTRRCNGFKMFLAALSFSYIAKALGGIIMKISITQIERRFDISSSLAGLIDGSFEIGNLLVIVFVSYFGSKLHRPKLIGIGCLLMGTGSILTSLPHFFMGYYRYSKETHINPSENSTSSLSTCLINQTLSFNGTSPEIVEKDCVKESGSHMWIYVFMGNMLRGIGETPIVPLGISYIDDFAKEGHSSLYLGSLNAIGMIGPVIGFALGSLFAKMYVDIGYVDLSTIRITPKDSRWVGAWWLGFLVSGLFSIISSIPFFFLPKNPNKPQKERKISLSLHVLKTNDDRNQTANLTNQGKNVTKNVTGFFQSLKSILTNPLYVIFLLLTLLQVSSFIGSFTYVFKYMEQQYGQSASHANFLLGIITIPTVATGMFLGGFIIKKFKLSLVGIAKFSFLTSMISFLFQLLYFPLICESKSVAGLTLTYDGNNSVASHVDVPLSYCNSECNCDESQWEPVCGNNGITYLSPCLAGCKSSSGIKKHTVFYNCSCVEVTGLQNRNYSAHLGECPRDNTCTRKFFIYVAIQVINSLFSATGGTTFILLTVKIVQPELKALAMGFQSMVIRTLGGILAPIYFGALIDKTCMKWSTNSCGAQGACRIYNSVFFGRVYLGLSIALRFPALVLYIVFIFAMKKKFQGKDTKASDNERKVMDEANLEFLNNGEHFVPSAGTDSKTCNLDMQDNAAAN

[14] = biological target: Solute carrier family 22 member 1 (Homo sapiens, UniProt O15245); assay: Inhibition of human OCT1 expressed in HEK293 cells using [14C]metformin as substrate preincubated for 30 mins followed by substrate addition and measured after 1 to 4 mins; format: cell-based
[15] = biological target: Solute carrier family 22 member 2 (Homo sapiens, UniProt O15244); assay: Inhibition of human OCT2 expressed in HEK293 cells using [14C]metformin as substrate preincubated for 30 mins followed by substrate addition and measured after 1 to 4 mins; format: cell-based
[16] = biological target: Multidrug and toxin extrusion protein 1 (Homo sapiens, UniProt Q96FL8); assay: Inhibition of human MATE1 expressed in HEK293 cells using [14C]metformin as substrate preincubated for 30 mins followed by substrate addition and measured after 1 to 4 mins; format: cell-based
[17] = biological target: Multidrug and toxin extrusion protein 2 (Homo sapiens, UniProt Q86VL8); assay: Inhibition of human MATE2K expressed in HEK293 cells using [14C]metformin as substrate preincubated for 30 mins followed by substrate addition and measured after 1 to 4 mins; format: cell-based
[18] = human, hepatocytes, 4 h, 1 µM
[19] = human, hepatocytes, 4 h, 5 µM
physchem = settings: octanol/water
in vitro = settings: dog, MDCK
[20] = Retention time of compound in phosphate buffer at pH 7.4 measured after approximately 150 mins by HPLC-UV analysis; format: physicochemical
[21] = Drug degradation in phosphate/D2O buffer at pH 7.6 assessed as half-life by H1-NMR analysis; format: ADME
[22] = biological target: Branched-chain alpha-ketoacid dehydrogenase kinase (Homo sapiens) (UniProt O14874); assay: Potency index, ratio of PF-07208254 IC50 to test compound IC50 for inhibition of human BDK using LBD-Tev-PhosphoPep/Lipoyl as substrate preincubated for 15 mins followed by substrate/ATP addition and measured after 90 mins by TR-FRET assay
[23] = biological target: Branched-chain alpha-ketoacid dehydrogenase kinase (Homo sapiens) (UniProt O14874); assay: Potency index, ratio of PF-07208254 IC50 to test compound IC50 for inhibition of BDK in human skeletal myocyte using BCKDHA as substrate assessed as inhibition of substrate phosphorylation incubated for 60 mins by AlphaLISA surefire ultra assay

Q: What does the source list for `COc1c(F)c(F)cc(-c2c(C(=O)O)sc3cc(F)ccc23)c1F`?
A: IC50 [1]: 0.041 µM; Drug metabolism [2]: metabolite_detected; Drug metabolism [3]: metabolite_detected; Drug metabolism [4]: metabolite_detected; Drug metabolism [5]: metabolite_detected; Drug metabolism [6]: metabolite_detected; Drug metabolism (Cytochrome P450): metabolite_detected; IC50 [7]: 3.3 µM; IC50 (Cytochrome P450 2C19): > 100 µM; IC50 (Cytochrome P450 2D6): > 100 µM; IC50 (Cytochrome P450 3A4 [8]): > 100 µM; IC50 (Cytochrome P450 3A4 [9]): > 100 µM; IC50 (Cytochrome P450 3A5): > 100 µM; IC50 (Cytochrome P450 1A2): 1.1 µM; IC50 (Cytochrome P450 2B6): 6.7 µM; IC50 (Cytochrome P450 2C8): 23.6 µM; IC50 (Cytochrome P450 2C9): 1 µM; IC50 [10]: 0.67 µM; IC50 [11]: 4.5 µM; IC50 [12]: > 80 µM; IC50 [13]: > 80 µM; IC50 [14]: > 80 µM; IC50 [15]: > 80 µM; IC50 [16]: > 80 µM; IC50 [17]: > 80 µM

Q: What does the source list for `O=C(O)c1sc2cc(F)sc2c1Cl`?
A: CLH(app) [18]: < 2.7 µL/min; PB [19]: 103 pmol; logD (physchem): 0.1; Papp A→B (in vitro): 14 ×10⁻⁶ cm/s

Q: Which “CLH(app)” value [18] does the source give for `COc1c(F)ccc(-c2c(C(=O)O)sc3cc(F)ccc23)c1F` here?
A: 26 µL/min

Q: And the logD (physchem)?
A: 1.1

Q: And the Papp A→B (in vitro)?
A: 26 ×10⁻⁶ cm/s

Q: With `COc1cccc(-c2c(C(=O)O)sc3cc(F)ccc23)c1` as the molecule, how does the “CLH(app)” value [18] read?
A: 32 µL/min

Q: And the logD (physchem)?
A: 1.4

Q: What about the Papp A→B (in vitro) of the same molecule?
A: 8.5 ×10⁻⁶ cm/s

Q: For `COc1c(F)c(F)cc(-c2c(C(=O)OC3O[C@H](C(=O)O)[C@@H](O)[C@H](O)[C@H]3O)sc3cc(F)ccc23)c1F` (some centres undefined), which Retention_time [20] is on record?
A: 17.6 min

Q: What about the half-life [21] of the same molecule?
A: ~1.37 h

Q: Which results are given for `COc1c(F)cc(F)c(-c2c(C(=O)O)sc3cc(F)ccc23)c1F`?
A: Ratio IC50 [22]: 7; Ratio IC50 [23]: 36; CLH(app) [18]: 21 µL/min; logD (physchem): 1; Papp A→B (in vitro): 20 ×10⁻⁶ cm/s

Q: For `CCc1c(F)c(F)cc(-c2c(C(=O)O)sc3cc(F)ccc23)c1F`, which “CLH(app)” value [18] is on record?
A: 52 µL/min

Q: And the logD (physchem)?
A: 2.2

Q: And the Papp A→B (in vitro)?
A: 11 ×10⁻⁶ cm/s

Q: Which “CLH(app)” value [18] does the source give for `CCOc1c(F)ccc(-c2c(C(=O)O)sc3cc(F)ccc23)c1F` here?
A: 43 µL/min

Q: What about the logD (physchem) of the same molecule?
A: 1.5

Q: What about the Papp A→B (in vitro) of the same molecule?
A: 16 ×10⁻⁶ cm/s

Q: For `O=C(O)c1sc2cc(F)ccc2c1Cl`, which “CLH(app)” value [18] is on record?
A: < 2 µL/min

Q: What about the logD (physchem) of the same molecule?
A: 0.5

Q: What about the Papp A→B (in vitro) of the same molecule?
A: 30 ×10⁻⁶ cm/s

Q: With `Cc1c(F)c(F)cc(-c2c(C(=O)O)sc3cc(F)ccc23)c1F` as the molecule, how does the logD (physchem) read?
A: 1.6

Q: What about the Papp A→B (in vitro) of the same molecule?
A: 11 ×10⁻⁶ cm/s

Q: What does the source list for `O=C(O)c1sc2cc(Cl)ccc2c1Cl`?
A: CLH(app) [18]: 5.2 µL/min; logD (physchem): 0.7; Papp A→B (in vitro): 31 ×10⁻⁶ cm/s

Q: Which “CLH(app)” value [18] does the source give for `COc1cccc(-c2c(C(=O)O)sc3cc(F)ccc23)c1F` here?
A: 23 µL/min

Q: What about the logD (physchem) of the same molecule?
A: 1

Q: And the Papp A→B (in vitro)?
A: 28 ×10⁻⁶ cm/s

Q: Which “CLH(app)” value [18] does the source give for `O=C(O)c1sc2cc(F)ccc2c1-c1ccccc1` here?
A: 31 µL/min

Q: And the logD (physchem)?
A: 1.1

Q: With `O=C(O)c1sc2cc(F)ccc2c1-c1cc(F)c(F)cc1F` as the molecule, how does the “CLH(app)” value [18] read?
A: 23 µL/min

Q: What about the logD (physchem) of the same molecule?
A: 1.3

Q: And the Papp A→B (in vitro)?
A: 10 ×10⁻⁶ cm/s
